According to patent publication US6677433B2 (The Regents of the University of California, priority 2001, dated 2004):

What was measured:
[1] = test system: castor seed 2S protein; assay type: biochemical, Ricinus communis; conditions: 20 min at 25° C.
[2] = biological target: T1, Acetylcholine Receptor (Mus musculus, UniProt P02716+P04756+P04760); assay type: binding; conditions: cells treated with reductant, washed, then toxin; no reductant = 100
T1 construct: Mouse cells, line C2, were grown as described by Gu et al; endogenous in cells; host or cells: mouse cell line C2, after fusion medium (myotubes)

[3] = Reoxidation of reduced BLG in air; assay type: physicochemical; conditions: reduced by either NTS or DTT
Procedure: Two sulfhydryl (SH) groups can often spontaneously react to form an S—S bond in the presence of oxygen. […] For example, the reduced form of β-lactoglobulin (BLG), a major allergen of cow's milk, is fully reoxidized after 3 days in air whether reduced by either NTS or DTT. This invention provides for the stabilization of proteins, including allergenic proteins reduced by the NTS at 4° C. and by DTT at 55° C. Other physiological reductants such as lipoic acid may also be used to initially reduce the proteins. In general, the reduction reactions were conducted as described in previous examples. The proteins are stabilized in that the SH groups of these proteins and allergens are blocked and prevented from reoxidizing to form S—S bonds. This stabilization is maintained for at least three months, preferably at least six months and more preferably for longer than one year. Reduced BLG was stabilized by reaction with the physiological disulfides, cystamine and oxidized glutathione (GSSG) and also by heat. Other physiological disulfides such as homoglutathione and some microbial disulfides would also be suitable. Besides BLG, examples are provided for milk, peanut and pollen extracts. However, other reduced proteins such as those of egg, soy, rice, wheat and barley may also be stabilized by reaction with the same physiological disulfides and by treatment with heat. […]

[4] = test system: trypsin; assay: Trypsin proteolysis of purified milk allergen proteins; assay type: biochemical; conditions: 2 μg trypsin
Procedure: The analysis of the reduction was done using the mBBr/SDS-PAGE techniques. Further in this study, when 10 μg of an NTS reduced purified milk allergen protein, β-lactoglobulin (Sigma Chemical Co.), was treated with 2 μg of trypsin, proteolysis was 100% as compared with only 50% for the identically trypsin treated oxidized β-lactoglobulin. […] However, 10 μg of purified […] reduced by the NTS was proteolyzed 80% by trypsin. Also 10 μg of α-lactalbumin reduced by 0.8 μg of thioredoxin and 0.5 mM DTT was 100% proteolyzed by 2 μg of trypsin.

[5] = biological target: NADP/thioredoxin system (Escherichia coli, UniProt P0AA25)
Procedure: Reactions were carried out in physiological buffered saline solution (PBS; i.e., 10 mM Na2HPO4, 1.8 mM KH2PO4, 2.7 mM KCl and 137 mM NaCl, pH 7.4) containing either 10 μg of pure target protein or 50 μg of raw milk. The reaction mixtures were incubated at 4° C. overnight or at 37° C. and 55° C. for 45 min. For complete reduction, samples were incubated in PBS containing 5 μl of 100 mM DTT and boiled 5 min. The reduced proteins were visualized on gels by mBBr labeling and gel electrophoresis as described below. The extent of reduction was determined by scanning the gels.
Sulfhydryl groups were visualized as their fluorescent mBBr derivatives. mBBr, 10 μl of a 100 mM solution, was added to each protein sample. After 20 min of incubation, the reaction was stopped by adding 10 μl of 100 mM 2-mercaptoethanol, 10 μl of 20% SDS and 20 μl of SDS/PAGE sample buffer containing 80% (v/v) glycerol and 0.005% bromophenol blue. Proteins were then separated by SDS/PAGE (10-20% acrylamide gradient) as described below. After electrophoresis, gels were placed in 12% trichloroacetic acid for 1 hr for fixation and then soaked overnight or longer in 40% (v/v) methanol and 10% (v/v) acetic acid with several changes to remove excess mBBr. The destained gels were then placed under 365 nm UV light to visualize fluorescent bands. […]

[6] = test system: pepsin; assay: Pepsin assay in simulated gastric fluid; assay type: in vitro ADME, porcine; conditions: oxidized BLG in milk, SGF 37° C.
Procedure: BLG, 640 μg, or milk, 1 mg protein (i.e., about 30 μl), was incubated with or without the thioredoxin system (NTS) at either 4° C. […] The BLG, 320 μg, or milk, 500 μg protein, was then treated in 200 μl of simulated gastric fluid (SGF) as described by Astwood, J. D. et al. (1996), “Stability of food allergens to digestion in vitro”, Nature Biotechnol. 14:1269-1273. SGF consists of 0.32% pepsin (w/v) and 30 mM NaCl adjusted at pH 1.2 with HCl (Board of Trustees (ed.) 1995, Simulated Gastric Fluid, TS., pp. 2053 in the United States Pharmacopeia 23, The National Formulary 18. United States Pharmacopeial Convention, Inc. Rockville, Md.). The reaction mixture was incubated at 37° C. and stopped by adding 0.375-fold volume of 160 mM Na2CO3 (ca. pH 7) after 0, 0.25, 1, 2, 4, 8, 15, 30 and 60 min incubation. The protein mixture was then subjected to SDS-PAGE (15% gels) and stained for protein with Coomassie blue as described below. As indicated, the allergenicity of the digested samples was determined by skin test analysis.

[7] = test system: atopic dogs; assay: Skin tests in atopic dogs (wheal area); conditions: dog, in vivo
Procedure: Newborn pups from two litters of the atopic dog colony, designated CGB and GCB, were injected subcutaneously at day 1 with 1 μg each of wheat, cows milk and beef extract (Miles, Inc., Elkhart, Ind., described in Example 33) in 0.2 ml of alum. A third litter, designated CBB, was injected with a soy extract (Miles, Inc. described in Example 33) in addition to these same allergens. Procedures for the sensitization, testing and maintenance of the pups were substantially the same as those described in Example 36.
About 3 min prior to skin testing, each dog received 4-5 ml of filtered 0.5% Evans blue dye solution (equivalent to 0.2 ml of 0.5% Evans blue dye per kg of weight) through a cephalic vein to enhance assessment of the cutaneous IgE antibodies. Serial dilutions of 100 μl of each sample were injected intradermally on the abdominal skin to establish the titer. After 15-20 min, the allergic response was determined by measuring the size of the blue wheal reaction (maximum length and width). An appropriate negative control (buffer diluted in physiological saline) was included for each animal tested. Repeated tests with thioredoxin, NTR, NADPH and pepsin alone were consistently negative.

[8] = test system: pepsin; assay: Assay for stability to pepsin (simulated gastric fluid); assay type: in vitro ADME, porcine; conditions: 37° C.
Procedure: BLG (1 mg/ml) or milk (15 mg/ml) were mixed with simulated gastric fluid (SGF) to give 0.32% pepsin and incubated for the indicated times at 37° C. as described in Example 39 and Astwood et al., 1996, herein incorporated by reference. The digested proteins were analyzed by reducing SDS-PACE (10 to 20% gradient gel) also as described in Laemmli, 1970, herein incorporated by reference.

T1 sequence (P04760 23-519): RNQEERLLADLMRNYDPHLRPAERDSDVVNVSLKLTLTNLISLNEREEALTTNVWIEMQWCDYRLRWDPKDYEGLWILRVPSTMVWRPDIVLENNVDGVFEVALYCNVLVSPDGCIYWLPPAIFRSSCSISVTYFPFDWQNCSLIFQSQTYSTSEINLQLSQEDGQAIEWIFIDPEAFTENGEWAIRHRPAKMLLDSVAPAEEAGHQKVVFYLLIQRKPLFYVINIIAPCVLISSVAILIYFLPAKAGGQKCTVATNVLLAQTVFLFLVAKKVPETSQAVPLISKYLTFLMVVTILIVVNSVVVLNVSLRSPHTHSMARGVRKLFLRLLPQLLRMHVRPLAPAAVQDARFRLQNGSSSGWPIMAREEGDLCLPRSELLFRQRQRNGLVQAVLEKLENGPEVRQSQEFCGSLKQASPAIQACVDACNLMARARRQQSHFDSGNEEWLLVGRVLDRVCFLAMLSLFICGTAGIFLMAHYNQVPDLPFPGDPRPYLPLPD
T1 sequence (P02716 25-520): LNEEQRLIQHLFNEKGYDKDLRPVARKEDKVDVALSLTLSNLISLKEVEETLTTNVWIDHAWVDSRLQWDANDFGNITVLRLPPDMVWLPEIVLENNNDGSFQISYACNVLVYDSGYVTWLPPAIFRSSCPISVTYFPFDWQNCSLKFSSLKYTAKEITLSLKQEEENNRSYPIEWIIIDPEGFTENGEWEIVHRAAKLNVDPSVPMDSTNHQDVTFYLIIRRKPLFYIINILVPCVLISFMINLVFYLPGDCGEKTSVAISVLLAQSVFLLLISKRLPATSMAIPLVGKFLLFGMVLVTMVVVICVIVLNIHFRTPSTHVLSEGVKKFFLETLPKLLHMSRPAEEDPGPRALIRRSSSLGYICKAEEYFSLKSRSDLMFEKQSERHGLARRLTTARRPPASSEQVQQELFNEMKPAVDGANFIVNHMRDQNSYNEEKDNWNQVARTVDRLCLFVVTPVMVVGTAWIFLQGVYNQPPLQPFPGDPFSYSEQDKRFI
T1 sequence (P09690 24-501, further chain): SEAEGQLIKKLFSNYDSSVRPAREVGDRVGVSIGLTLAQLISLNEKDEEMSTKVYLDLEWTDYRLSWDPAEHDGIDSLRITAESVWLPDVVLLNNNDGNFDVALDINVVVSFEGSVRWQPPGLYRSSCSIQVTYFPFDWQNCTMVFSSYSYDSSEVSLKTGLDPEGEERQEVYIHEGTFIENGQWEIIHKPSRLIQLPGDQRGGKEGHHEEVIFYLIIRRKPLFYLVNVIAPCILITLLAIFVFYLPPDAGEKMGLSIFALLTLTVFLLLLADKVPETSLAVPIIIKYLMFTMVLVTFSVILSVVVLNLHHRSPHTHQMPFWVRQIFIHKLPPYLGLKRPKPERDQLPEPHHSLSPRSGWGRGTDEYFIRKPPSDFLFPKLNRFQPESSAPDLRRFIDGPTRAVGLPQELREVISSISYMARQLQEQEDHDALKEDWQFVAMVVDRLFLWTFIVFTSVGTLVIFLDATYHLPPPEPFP
T1 sequence (P04756 21-457): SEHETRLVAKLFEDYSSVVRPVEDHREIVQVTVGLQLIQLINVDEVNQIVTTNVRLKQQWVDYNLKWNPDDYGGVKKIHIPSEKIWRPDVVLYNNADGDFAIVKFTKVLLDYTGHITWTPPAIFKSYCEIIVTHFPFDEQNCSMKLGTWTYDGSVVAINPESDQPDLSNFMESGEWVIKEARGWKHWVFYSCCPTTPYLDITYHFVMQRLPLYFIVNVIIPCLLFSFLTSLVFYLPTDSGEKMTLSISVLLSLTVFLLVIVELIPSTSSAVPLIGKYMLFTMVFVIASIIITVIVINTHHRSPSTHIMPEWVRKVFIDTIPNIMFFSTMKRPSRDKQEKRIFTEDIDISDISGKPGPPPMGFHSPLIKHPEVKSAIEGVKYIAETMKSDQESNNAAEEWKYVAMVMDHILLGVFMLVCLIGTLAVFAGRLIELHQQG

Compound: O[C@H](CS)[C@H](O)CS (racemic) [DTT, dithiothreitol]
- Relative Reduction (%) [1]: 67%
- % Binding, Treatment C [2]: 85.0%

Compound: reduced form of BLG: BLG reduced by either NTS or DTT
- time to full reoxidation in air [3]: 3 days

Compound: β-lactoglobulin: bovine β-lactoglobulin, major milk allergen; Control = untreated BLG in Tables XVIII, XXI-XXIV
- proteolysis by trypsin ([4]; 10 μg oxidized protein): 50%
- proteolysis by trypsin ([4]; 10 μg protein reduced by the NTS): 100%
- time BLG remained reduced [5]: 2 days
- time resisting digestion [6]: at least 60 min
- share of the total wheal-inducing activity of milk [7]: 80%
- half-life in SGF [8]: about 2 hours
